Results as given in US20240208961A1, “EIF4E INHIBITORS AND USES THEREOF” (PIC Therapeutics, Inc., priority 2022, published 2024).
Where “and” joins values, the source holds several entries; their conditions need not be identical. Equal values may be shown once. Read-outs that look alike come from different tables or passages of the source.

Experiment: Pharmacokinetic study of I-11 in female BALB/c mice (Example 4)
Format: in vivo, Balb/c mouse
Method: Pharmacokinetic Study in Female BALB/c Mice: Balb/c mouse, 17-19 g, 8-10 weeks, female, N=27, purchased from JH Laboratory Animal Co. LTD
Fasted overnight and fed at 4 hr post dosing.
Animals dosed with sampling at 0.083, 0.25, 0.5, 1, 2, 4, 8, 24 hr post dose. 8 time points. Semi-serial bleeding for plasma only. The animals were restrained manually at the designated time points. Approx. 110 μL of blood/time point was taken from the animals via facial vein into tubes with K2EDTA. Blood sample was centrifuged at 4° C. (2000 g, 5 min) to obtain plasma within 15 m after sample collection. Put on wet ice, then plasma samples were stored at approximately −70° C. until analysis.
For oral gavage, compound was dosed as a suspension in […] carboxymethyl cellulose (CMC), 0.2% Tween 80 in water. Compound was orally dosed at 50 mg/Kg, at 100 mg/Kg.
For IV dosing, compound was dissolved into a solution of […], […] HS 15 and 90% Saline. Compound was IV dosed at 5 mg/Kg.
Plasma samples were analyzed for I-11 using LC-MS using a calibration curve of known concentrations.
FIG. 1 describes the mean plasma concentration-time profiles of I-11 after single IV dose of 5 mg/kg, PO dose of 50 mg/kg and 100 mg/kg in female Balb/c mice (N=3/time point). • Note: • 1. […] The IV dosing solutions were prepared in 5% DMSO+5% Solutol HS15+90% Saline. The PO dosing solutions were prepared in 1% CMC-Na+0.2% Tween 80 in water. • 3. BQL=Below quantifiable limit of 3.00 ng/mL for I-11 in female Balb/c mouse plasma samples. • 4. PK parameters were estimated by non-compartmental model using WinNonlin 8.2. If the adjusted rsq (linear regression coefficient of the concentration value on the terminal phase) is less than 0.9, T1/2 might not be accurately estimated. • 5. F value was determined by the following equation: • If AUClast/AUCINF>80%:
F=(AUCINF-EX×DOSEIV)/(AUCINF-IV×DOSEEX)[…] • If AUClast/AUCINF<80% or AUCINF not available:
F=([…])/(AUClast-IV×DOSEEX)[…] • 6. NA: Not available.

[1] = IV 5 mg/kg, 24 hr, BQL = below quantifiable limit of 3.00 ng/mL

- Plasma concentration Individual (IV 5 mg/kg, 0.083 hr, 5 mg/kg): 9810 ng/mL and 12300 ng/mL
- Plasma concentration Individual (IV 5 mg/kg, 0.25 hr, 5 mg/kg): 5200 ng/mL and 5420 ng/mL
- Plasma concentration Individual (IV 5 mg/kg, 0.5 hr, 5 mg/kg): 2920 ng/mL and 1730 ng/mL
- Plasma concentration Individual (IV 5 mg/kg, 1 hr, 5 mg/kg): 865 ng/mL and 1180 ng/mL and 1810 ng/mL
- Plasma concentration Individual (IV 5 mg/kg, 2 hr, 5 mg/kg): 142 ng/mL
- Plasma concentration Individual (IV 5 mg/kg, 4 hr, 5 mg/kg): 48.5 ng/mL and 29.8 ng/mL
- Plasma concentration Individual (IV 5 mg/kg, 8 hr, 5 mg/kg): 26.1 ng/mL and 15.9 ng/mL
- Plasma concentration Individual [1]: BQL
- Plasma concentration Mean [1]: BQL
- F (PO 50 mg/kg vs IV 5 mg/kg): 50.9%
- Plasma concentration Individual (PO 50 mg/kg, 0.083 hr, 50 mg/kg): 288 ng/mL and 220 ng/mL
- Plasma concentration Individual (PO 50 mg/kg, 0.25 hr, 50 mg/kg): 1880 ng/mL and 2380 ng/mL and 1030 ng/mL
- Plasma concentration Individual (PO 50 mg/kg, 0.5 hr, 50 mg/kg): 6750 ng/mL and 6980 ng/mL
- Plasma concentration Individual (PO 50 mg/kg, 1 hr, 50 mg/kg): 5940 ng/mL and 6670 ng/mL
- Plasma concentration Individual (PO 50 mg/kg, 2 hr, 50 mg/kg): 7770 ng/mL and 3890 ng/mL
- Plasma concentration Individual (PO 50 mg/kg, 4 hr, 50 mg/kg): 1750 ng/mL and 2280 ng/mL
- Plasma concentration Individual (PO 50 mg/kg, 8 hr, 50 mg/kg): 249 ng/mL and 325 ng/mL
- Plasma concentration Individual (PO 50 mg/kg, 24 hr, 50 mg/kg): 3.85 ng/mL and 64.0 ng/mL and 182 ng/mL
- F (PO 100 mg/kg vs IV 5 mg/kg): 60.0%
- Plasma concentration Individual (PO 100 mg/kg, 0.083 hr, 100 mg/kg): 318 ng/mL and 232 ng/mL
- Plasma concentration Individual (PO 100 mg/kg, 0.25 hr, 100 mg/kg): 2990 ng/mL and 2700 ng/mL
- Plasma concentration Individual (PO 100 mg/kg, 1 hr, 100 mg/kg): 6710 ng/mL and 7030 ng/mL
- Plasma concentration Individual (PO 100 mg/kg, 2 hr, 100 mg/kg): 14100 ng/mL and 12300 ng/mL
- Plasma concentration Individual (PO 100 mg/kg, 8 hr, 100 mg/kg): 444 ng/mL and 503 ng/mL and 953 ng/mL
- Plasma concentration Individual (PO 100 mg/kg, 24 hr, 100 mg/kg): 40.6 ng/mL and 57.5 ng/mL and 84.2 ng/mL
- clearance (female, BALB/c, mouse, plasma, iv, 5 mg/kg, IV 5 mg/kg): 15.8 mL/min/kg
- concentration at 0.083 hr (female, BALB/c, mouse, plasma, iv, 5 mg/kg, IV 5 mg/kg, 0.083 hr, read-out: Plasma concentration Individual): 7980 ng/mL
- concentration at 0.083 hr (female, BALB/c, mouse, plasma, iv, 5 mg/kg, IV 5 mg/kg, 0.083 hr, read-out: Plasma concentration Mean): 10000 ng/mL
- concentration at 0.25 hr (female, BALB/c, mouse, plasma, iv, 5 mg/kg, IV 5 mg/kg, 0.25 hr, read-out: Plasma concentration Individual): 5600 ng/mL
- concentration at 0.25 hr (female, BALB/c, mouse, plasma, iv, 5 mg/kg, IV 5 mg/kg, 0.25 hr, read-out: Plasma concentration Mean): 5410 ng/mL
- concentration at 0.5 hr (female, BALB/c, mouse, plasma, iv, 5 mg/kg, IV 5 mg/kg, 0.5 hr, read-out: Plasma concentration Individual): 2710 ng/mL
- concentration at 0.5 hr (female, BALB/c, mouse, plasma, iv, 5 mg/kg, IV 5 mg/kg, 0.5 hr, read-out: Plasma concentration Mean): 2450 ng/mL
- concentration at 1 hr (female, BALB/c, mouse, plasma, iv, 5 mg/kg, IV 5 mg/kg, 1 hr, read-out: Plasma concentration Mean): 1280 ng/mL
- concentration at 2 hr (female, BALB/c, mouse, plasma, iv, 5 mg/kg, IV 5 mg/kg, 2 hr, read-out: Plasma concentration Individual): 135 ng/mL
- concentration at 2 hr (female, BALB/c, mouse, plasma, iv, 5 mg/kg, IV 5 mg/kg, 2 hr, read-out: Plasma concentration Mean): 140 ng/mL
- concentration at 4 hr (female, BALB/c, mouse, plasma, iv, 5 mg/kg, IV 5 mg/kg, 4 hr, read-out: Plasma concentration Individual): 58.3 ng/mL
- concentration at 4 hr (female, BALB/c, mouse, plasma, iv, 5 mg/kg, IV 5 mg/kg, 4 hr, read-out: Plasma concentration Mean): 45.5 ng/mL
- concentration at 8 hr (female, BALB/c, mouse, plasma, iv, 5 mg/kg, IV 5 mg/kg, 8 hr, read-out: Plasma concentration Individual): 19 ng/mL
- concentration at 8 hr (female, BALB/c, mouse, plasma, iv, 5 mg/kg, IV 5 mg/kg, 8 hr, read-out: Plasma concentration Mean): 20.3 ng/mL
- concentration at 0.083 hr (female, BALB/c, mouse, plasma, po, 50 mg/kg, PO 50 mg/kg, 0.083 hr, read-out: Plasma concentration Individual): 263 ng/mL
- concentration at 0.083 hr (female, BALB/c, mouse, plasma, po, 50 mg/kg, PO 50 mg/kg, 0.083 hr, read-out: Plasma concentration Mean): 257 ng/mL
Structure (SMILES): CC(C)Cc1sc(Nc2ncc(-c3cccs3)cc2C(=O)O)nc1C(C)(C)C [Compound I-11]
- abnormal clinical symptoms during in-life study (IV 5 mg/kg, PO 50 and 100 mg/kg single dose): No abnormal clinical symptoms were observed
- Plasma concentration Individual (PO 100 mg/kg, 0.5 hr, 100 mg/kg): 4890 ng/mL and 6670 ng/mL and 11900 ng/mL
- Plasma concentration Individual (PO 100 mg/kg, 4 hr, 100 mg/kg): 4840 ng/mL and 6930 ng/mL and 12800 ng/mL
